Measured values reported in US6414003B1, “Oxazolone derivatives and their use as anti-helicobacter pylori agents” (Takeda Chemical Industries, Ltd., priority 1996, dated 2002).
Converted amounts (≈) assume the structure as drawn.

Assays:
H. pylori TN 2 = assay: In vitro antimicrobial test (agar dilution method); assay type: cell-based, Helicobacter pylori; conditions: Brucella agar with 7% horse blood
[1] = tested on: Proteus morganii IFO 3168; assay: In vitro antimicrobial test (agar dilution method); assay type: cell-based; conditions: Brucella agar with 7% horse blood, 37° C., 4 days
Protocol: (§1) Using 5 strains of Helicobacter pylori, 19 other bacterial species and 2 yeast species as test strains, the antimicrobial activities of various compounds were determined by the method described below (agar dilution method). The test compound was dissolved in dimethyl sulfoxide; this solution was 2-fold diluted step by step with sterilized distilled water to yield test samples. Two milliliters of each test sample was mixed with 18 ml of Brucella agar supplemented with 7% horse blood as a medium to prepare a determination plate. Helicobacter pylori was subjected to shaking culture at 37° C. in a gas pack jar incorporating CampyPak™ (BBL^R Beckton Dickinson Microbiology Systems) for 20 hours, using Brucella broth medium supplemented with 2.5% fetal bovine serum, to yield a seed inoculum. The other test microorganisms were each cultured at 37° C. for 20 hours, using Brucella broth medium, to yield respective seed inocula.
(§2) Five microliters of each seed inoculum, previously adjusted to about 10^6 CFU/ml using Brucella broth medium supplemented with 2.5% fetal bovine serum was inoculated to each determination plate, and cultured at 37° C. in a gas pack jar incorporating CampyPak™ and water-soaked cotton absorbent for 4 days. After cultivation, strain growth was macroscopically examined; the minimum concentration for the absence of strain growth was taken as the MIC value (minimum inhibitory concentration) of the test compound.

[2] = tested on: Micrococcus luteus IFO 12708; assay: In vitro antimicrobial test (agar dilution method); assay type: cell-based; conditions: Brucella agar with 7% horse blood, 37° C., 4 days
Protocol: as §1, §2

[3] = tested on: Proteus vulgaris IFO 3045; assay: In vitro antimicrobial test (agar dilution method); assay type: cell-based; conditions: Brucella agar with 7% horse blood, 37° C., 4 days
Protocol: as §1, §2

Bacillus cereus IFO 3514 = assay: In vitro antimicrobial test (agar dilution method); assay type: cell-based; conditions: Brucella agar with 7% horse blood, 37° C., 4 days
Protocol: as §1, §2

[4] = tested on: Saccharomyces cerevisiae IFO 0209; assay: In vitro antimicrobial test (agar dilution method); assay type: cell-based; conditions: Brucella agar with 7% horse blood, 37° C., 4 days
Protocol: as §1, §2

[5] = tested on: Bacillus pumilus IFO 3813; assay: In vitro antimicrobial test (agar dilution method); assay type: cell-based; conditions: Brucella agar with 7% horse blood, 37° C., 4 days
Protocol: as §1, §2

[6] = tested on: Salmonella typhimurium IFO 12529; assay: In vitro antimicrobial test (agar dilution method); assay type: cell-based; conditions: Brucella agar with 7% horse blood, 37° C., 4 days
Protocol: as §1, §2

[7] = tested on: Micrococcus flavus IFO 3242; assay: In vitro antimicrobial test (agar dilution method); assay type: cell-based; conditions: Brucella agar with 7% horse blood, 37° C., 4 days
Protocol: as §1, §2

[8] = tested on: Salmonella enteritidis IFO 3313; assay: In vitro antimicrobial test (agar dilution method); assay type: cell-based; conditions: Brucella agar with 7% horse blood, 37° C., 4 days
Protocol: as §1, §2

[9] = tested on: Proteus mirabilis ATCC 21100; assay: In vitro antimicrobial test (agar dilution method); assay type: cell-based; conditions: Brucella agar with 7% horse blood, 37° C., 4 days
Protocol: as §1, §2

[10] = tested on: Citrobater freundii IFO 12681; assay: In vitro antimicrobial test (agar dilution method); assay type: cell-based; conditions: Brucella agar with 7% horse blood, 37° C., 4 days
Protocol: as §1, §2

[11] = tested on: Escherichia coli NIHJ JC-2; assay: In vitro antimicrobial test (agar dilution method); assay type: cell-based; conditions: Brucella agar with 7% horse blood, 37° C., 4 days
Protocol: as §1, §2

[12] = tested on: Staphylococcus aureus FDA 209P; assay: In vitro antimicrobial test (agar dilution method); assay type: cell-based; conditions: Brucella agar with 7% horse blood, 37° C., 4 days
Protocol: as §1, §2

[13] = tested on: Candida albicans IFO 0583; assay: In vitro antimicrobial test (agar dilution method); assay type: cell-based; conditions: Brucella agar with 7% horse blood, 37° C., 4 days
Protocol: as §1, §2

[14] = tested on: Serratia marcescens IFO 3046; assay: In vitro antimicrobial test (agar dilution method); assay type: cell-based; conditions: Brucella agar with 7% horse blood, 37° C., 4 days
Protocol: as §1, §2

Escherichia coli K12 = assay: In vitro antimicrobial test (agar dilution method); assay type: cell-based; conditions: Brucella agar with 7% horse blood, 37° C., 4 days
Protocol: as §1, §2

[15] = tested on: Bacillus megaterium IFO 12108; assay: In vitro antimicrobial test (agar dilution method); assay type: cell-based; conditions: Brucella agar with 7% horse blood, 37° C., 4 days
Protocol: as §1, §2

[16] = tested on: Bacillus subtilis PCI 219; assay: In vitro antimicrobial test (agar dilution method); assay type: cell-based; conditions: Brucella agar with 7% horse blood, 37° C., 4 days
Protocol: as §1, §2

[17] = tested on: Alcaligenes faecalis IFO 13111; assay: In vitro antimicrobial test (agar dilution method); assay type: cell-based; conditions: Brucella agar with 7% horse blood, 37° C., 4 days
Protocol: as §1, §2

[18] = tested on: Klebsiella pneumoniae IFO 3317; assay: In vitro antimicrobial test (agar dilution method); assay type: cell-based; conditions: Brucella agar with 7% horse blood, 37° C., 4 days
Protocol: as §1, §2

[19] = tested on: Pseudomonas aeruginosa IFO 3080; assay: In vitro antimicrobial test (agar dilution method); assay type: cell-based; conditions: Brucella agar with 7% horse blood, 37° C., 4 days
Protocol: as §1, §2

[20] = tested on: Helicobacter pylori TN2GF4; assay: In vivo antimicrobial activity test in infected mongolian gerbils; conditions: for Clearance Rate: mongolian gerbils infected with H. pylori TN2GF4; for Bacterial Detection: mean±standard deviation
Protocol: After mongolian gerbils (MGS/Sea, male, 6 weeks of age) were fasted for 24 hours, Helicobacter pylori TN2GF4 was inoculated to the stomach at 10^7.08 per mongolian gerbil. Starting at 11 days after infection, a 3, 10, 30, or 100 mg/kg suspension of the test compound in a 0.5% aqueous solution of methyl cellulose was orally administered twice daily (morning and evening) for 3 days. On the day after final administration, the stomach of each infected mongolian gerbil was excised and disrupted; a series of 10-fold dilutions of the stomach homogenate were each inoculated to modified Skirrow's medium supplemented with activated charcoal and cultured under microaerophilic conditions at 37° C. for 4 days, after which clearance effect was assessed on the basis of the presence or absence of bacterial growth. Bacterial cell counts are expressed in mean±standard deviation after Dunnett's test against the control group.
In Table 4, ** indicates p<0.01.

H. pylori CPY 433 = assay: In vitro antimicrobial test (agar dilution method); assay type: cell-based, Helicobacter pylori; conditions: Brucella agar with 7% horse blood
H. pylori NCTC 11916 = assay: In vitro antimicrobial test (agar dilution method); assay type: cell-based, Helicobacter pylori; conditions: Brucella agar with 7% horse blood
Protocol: as §1
Five microliters of each seed inoculum, previously adjusted to about 10^6 CFU/ml using Brucella broth medium supplemented with 2.5% fetal bovine serum was inoculated to each determination plate, and cultured at 37° C. in a gas pack jar incorporating CampyPak™ and water-soaked cotton absorbent for 4 days. […]

[21] = tested on: Helicobacter pylori NCTC 11637; assay: In vitro antimicrobial test (agar dilution method); assay type: cell-based; conditions: Brucella agar with 7% horse blood, 37° C., 4 days
H. pylori TN 58 = assay: In vitro antimicrobial test (agar dilution method); assay type: cell-based, Helicobacter pylori; conditions: Brucella agar with 7% horse blood
[22] = 3 mg/kg orally twice daily for 3 days

Q: Which results are given for `CN=C1NC(=O)[C@H]([C@H](C)c2c[nH]c3ccccc23)O1` [Indolmycin, indolmycin]?
A: MIC (H. pylori TN 2): 0.006 µg/mL (≈ 0.0233 µM); MIC [1]: >100 µg/mL; MIC [2]: 12.5 µg/mL (≈ 48.6 µM); MIC [3]: >100 µg/mL; MIC (Bacillus cereus IFO 3514): >100 µg/mL; MIC [4]: >100 µg/mL; MIC [5]: >100 µg/mL; MIC [6]: >100 µg/mL; MIC [7]: >100 µg/mL; MIC [8]: >100 µg/mL; MIC [9]: >100 µg/mL; MIC [10]: >100 µg/mL; MIC [11]: >100 µg/mL; MIC [12]: >100 µg/mL; MIC [13]: >100 µg/mL; MIC [14]: >100 µg/mL; MIC (Escherichia coli K12): >100 µg/mL; MIC [15]: >100 µg/mL; MIC [16]: >100 µg/mL; MIC [17]: >100 µg/mL; MIC [18]: >100 µg/mL; MIC [19]: >100 µg/mL; Clearance Rate [20, 22]: 0/5 (0) %; Bacterial Detection [20, 22]: 4.61 ± 1.84 log CFU/gastric wall; gastric bacterial cell count (in words) ([20]; 10 mg/kg or higher, mongolian gerbil): reduced the mongolian gerbil gastric bacterial cell count with dose dependency; Clearance Rate ([20]; 10 mg/kg orally twice daily for 3 days): 0/5 (0) %; Bacterial Detection ([20]; 10 mg/kg orally twice daily for 3 days, ** p<0.01 vs control): 2.76 ± 1.04** log CFU/gastric wall; Clearance Rate ([20]; 30 mg/kg orally twice daily for 3 days): 1/4 (25) %; Clearance Rate ([20]; 30 mg/kg orally twice daily for 3 days, listed as indolmycin): 25%; Bacterial Detection ([20]; 30 mg/kg orally twice daily for 3 days, ** p<0.01 vs control): 1.96 ± 0.78** log CFU/gastric wall; Clearance Rate ([20]; 100 mg/kg orally twice daily for 3 days): 4/5 (80) %; Clearance Rate ([20]; 100 mg/kg orally twice daily for 3 days, listed as indolmycin): 80%; Bacterial Detection ([20]; 100 mg/kg orally twice daily for 3 days, ** p<0.01 vs control): 1.48 ± 0.00** log CFU/gastric wall; MIC (H. pylori CPY 433): 0.013 µg/mL (≈ 0.0505 µM); MIC (H. pylori NCTC 11916): 0.013 µg/mL (≈ 0.0505 µM); MIC [21]: 0.006 µg/mL (≈ 0.0233 µM); MIC (H. pylori TN 58): 0.025 µg/mL (≈ 0.0972 µM)

Q: Which MIC (H. pylori TN 2) does the source give for `C[C@H](c1c[nH]c2ccccc12)[C@@H]1OC(N(C)C(=O)OCc2ccccc2)=NC1=O` [Example 2, (5S)-2-(N-Benzyloxycarbonyl-N-methyl)amino-5[(1R)-1-(indol-3-yl)ethyl]-2-oxazolin-4-one] here?
A: 0.025 µg/mL (≈ 0.0639 µM)

Q: And the MIC (H. pylori CPY 433)?
A: 0.05 µg/mL (≈ 0.128 µM)

Q: And the MIC [21]?
A: 0.025 µg/mL (≈ 0.0639 µM)

Q: And the MIC (H. pylori TN 58)?
A: 0.05 µg/mL (≈ 0.128 µM)
